{
  "source": "patent US7927790B2",
  "about": "“Suppression of HIV-1 replication via inhibition of human flap endonuclease-1-mediated HIV-1 central DNA flap processing” (priority 2005, dated 2011)",
  "key": {"[1]": {"biological_target": "FEN-1 (Homo sapiens, UniProt P39748)", "sequence (P39748 whole entry)": "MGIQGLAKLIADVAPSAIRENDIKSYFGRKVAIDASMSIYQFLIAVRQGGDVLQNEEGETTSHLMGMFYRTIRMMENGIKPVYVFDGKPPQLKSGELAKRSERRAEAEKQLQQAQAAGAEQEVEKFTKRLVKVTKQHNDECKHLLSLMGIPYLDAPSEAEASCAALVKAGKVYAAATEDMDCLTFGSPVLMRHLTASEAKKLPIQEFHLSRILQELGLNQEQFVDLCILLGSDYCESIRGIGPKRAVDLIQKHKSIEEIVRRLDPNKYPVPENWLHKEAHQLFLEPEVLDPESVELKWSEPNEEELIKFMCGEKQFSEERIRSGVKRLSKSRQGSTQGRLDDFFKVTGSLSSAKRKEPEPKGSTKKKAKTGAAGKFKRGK", "experiment": "FEN-1 nuclease assay with HIV CDF and regular 5′ flap model substrates", "assay_type": "biochemical", "procedure": "0.25 or 0.5 pmol of purified recombinant FEN-1 were mixed with 1 pmol of regular 5′ flap substrate with a 3′ flap of single nucleotide or HIV CDF substrate, respectively in the presence of 0, 0.1, 0.2, 0.4, 0.6, 0.8, and 1.0 mM pentamidine isethionate salt. The reaction was carried out at 37° C. for 30 minutes. Substrates and products were analyzed with DNA sequencing PAGE and visualized with radio-autograph (upper panel). The amount of cleavage products and non-cleaved substrates were quantified with ImagineQuant and were shown in the bottom panel.\nOne pmol of HIV CDF substrate were mixed with 0, 0.01, 0.1, 1, and 3 pmol of purified recombinant FEN-1 in the absence or presence of 0.4 mM pentamidine isethionate salt. The reaction was carried out at 37° C. for 30 minutes. Substrates and products were analyzed with DNA sequencing PAGE and visualized with radio-autograph (upper panel). The amount of cleavage product and non-cleaved substrate were quantified with ImagineQuant and were shown in the bottom panel.\nFIG. 12 is a graph line and chart showing kinetic analysis of FEN-1 cleavage of HIV CDF substrates in the absence and presence of pentamidine. 1 pmol of FEN-1 was incubated with 0, 0.125, 0.25, 0.375, 0.5, 1, and 2 pmol of HIV CDF substrates. The reaction were carried out at 37° C. for 10 min. The amount of cleavage product and non-cleaved substrate were quantified with ImagineQuant. The Michaelis-Menten kinetic parameters Km and Kcat (Bottom panel) were calculated with double-reciprocal plots of 1/v versus 1/[s] (Upper panel).\nNuclease assays. DNA model substrates were prepared as previously described (Zheng 2005). FEN-1 nuclease and/or D181A mutant was incubated with 1 pmol of indicated DNA substrates at 30° C. for 15 minutes. DNA substrates and products were separated in DNA sequencing PAGE and visualized with autoradiography.\nFinally, the third criteria is in vitro inhibition of HIV-CDF processing. The inhibition of FEN-1 cleavage of HIV-CDF and regular 5′ flap structures by molecules selected after criteria 2 are examined in this test. Only the molecules that inhibit FEN-1 cleavage of HIV-CDF but not the regular 5′ flap structures are qualified for in vivo studies. The inhibition efficacy of HIV replication in H9 and CEM T cell lines by small molecules is determined with the HIV reverse transcriptase inhibitor AZT used as an inhibition control."}, "[2]": {"test_system": "HIV IIIB virus", "experiment": "Antiviral challenge assay, HIV IIIB replication in H9 or CEM cells, p24", "assay_type": "cell-based, HIV-1", "conditions": "for suppression of HIV replication (p24) / inhibition of HIV replication (p24): HIV IIIB, 7 days; for suppression of HIV replication (p24): 15 μM pentamidine; for inhibition of HIV replication (p24): 10 μM AZT", "procedure": "H9 cells or CEM cells were challenged with HIV IIIB virus in the absence (PC) or presence of 15 μM pentamidine (PTD) or 10 μM AZT. Cells were grown for 7 days and the concentration of p24 were determined and the inhibition percentage were calculated. FIG. 13B: H9 cells or CEM cells were challenged with HIV IIIB virus in the absence or presence of varying concentration of pentamidine (PTD) or AZT. Cells were grown for 7 days and the concentration of p24 were determined.\nThe next experiment examined whether pentamidine could inhibit HIV replication in vivo. The H9 cells and CEM cells were challenged with HIV IIIB virus in the absence or presence of 15 μM pentamidine or 10 μM AZT, a HIV reverse transcriptase inhibitor.\nAntiviral challenge assays using infectious laboratory and other HIV-1 strains: Appropriate cells, screened for viability and growth kinetics, are challenged with HIV-1 strain IIIB, NL4-3, JRFL or primary isolates. This is a modification of a standard method described by Ho (Ho 1991) for virus neutralization. The resultant inoculum is titrated by ID50 in uninfected CEM, H9 or PBMC cultures. 0.01 MOI HIV is inoculated onto 10^6 candidate cells for six hours at 37° C., and then washed three times with PBS. For screening assays, each cell culture supernatant is examined on day seven post infection and examined for reverse transcriptase activity or p24 concentration. For confirmation assays, cultures are followed for day 7, 14, 21 and 28 observations. Cells are fed twice weekly by removing one-half of the media. Viral inhibition is defined >50% reduction in RT activity or p24 compared with control culture, which were mock-treated."}, "[3]": {"test_system": "HIV-1 cDNA integration", "experiment": "HIV-1 integration assay, Southern blot hybridization of host genomic DNA", "assay_type": "cell-based", "conditions": "expression in HeLa cells", "procedure": "To further validate that inhibition of FEN-1 nuclease activity reduced HIV-1 cDNA integration, genomic DNA was isolated and the integration of viral cDNA into the host genome was detected by Southern blot hybridization. […] Both of the experiments indicate that the integration of HIV may be impaired under a FEN-1 deficient background.\nHIV-1 integration assay. Genomic DNA was isolated from HIV-1 infected cells according to a previous protocol (Chen 1998). 20 μg of DNA was digested with EcoRV and BamHI and resolved on a native agarose gel. A 0.8 kb of HIV-1 specific DNA fragment, released by digestion of HIV cDNA with BamHI and BgIII, was used as a probe in Southern blot hybridization."}, "[4]": {"test_system": "HIV-1 vector HXB2-Hyg", "experiment": "HIV-1 infection colony assay (hygromycin-resistant colonies) in HeLa CD4+ cells", "assay_type": "cell-based", "conditions": "compared to control HeLa CD4+ cells", "procedure": "The cells are infected with a modified HIV-1 virus. Upon integration, the infected cells become hygromycin-resistant due to the expression of the drug-resistant gene from the proviral DNA. The integration efficiency is then determined by counting the colonies selected on Hygromycin B. The integration is confirmed by LTR-Tag assay.\nA modified HIV-1 virus vector derived from strain HXB2 (HXB2-Hyg) with a newly created Bpm I site near the end of the U5 region in its 5′ LTR is prepared. This virus genome also contains a hygromycin-resistant gene for selecting virus-infected cells. This VSV-G pseudotyped virus is used to infect LaD cells along with LaF and LaP cells with m.o.i. of 1.0. The infected cells are cultured in a medium containing 200 μg/ml of Hygromycin B for 2 weeks. The virus-infected cells with the stable integrated provirus are hygromycin-resistant and grow into colonies. The colonies are stained with 0.2% crystal violet in 10% phosphate-buffered formalin (pH 7.0) and counted.\nAn LTR-Tag analysis method is used to detect HIV integration. […] For this reason, there are many fewer ^32P-labeled LTR-Tags prepared from the D181A overexpressing LaD cells in comparison to the radioactivity-labeled LTR-Tags prepared from the LaP cells. […]\nHIV-1 infection colony assay. […] Hygromycin-resistant colonies were stained with 0.2% crystal violet in 70% ethanol, and the number of colonies was counted."}, "[5]": {"test_system": "HIV-1 strain NL4-3 and III B", "experiment": "HIV-1 replication in CEM T-cells over-expressing FEN-1 or D181A, secreted p24", "assay_type": "cell-based", "procedure": "In order to test the effects of FEN-1 function on HIV replication in its natural host cells, human T-cells, the CEM cells with the same construct shown in FIG. 4A were transfected under selection of G418. CEM cells (C), CEM cells expressing the c-myc-tagged hFEN-1 (F), or D181A mutant (A) were seeded at 0.5×10^4 cells per well in a 12-well plate. Duplicate plates were prepared for each cell line. The cells were challenged with two HIV-1 strains: NL4-3 and III B. Virus challenge proceeded at both 50 TCID50 and 5 TCID50. The cell culture supernatants were collected and the HIV-1 p24 was measured weekly for four weeks post-infection.\nHIV-1 replication in CEM cells. CEM cells, or CEM cells infected with the hFEN-1 or D181A retroviral vector, were seeded at 0.5×10^4 cells per well of a 12-well plate. Duplicate plates were prepared for each cell line. The cells were challenged with HIV-1 strain NL4-3 and III B. Viral challenge was conducted at both 50 TCID50. Cell culture supernatants were collected and the HIV-1 p24 was measured weekly for four weeks post-infection. Syncytium formation due to the HIV-1 infection was monitored, and cells were photographed under a microscope weekly (FIGS. 6-7)."}, "[6]": {"conditions": "in the presence of 400 μM of pentamidine"}},
  "note": "“Also recorded” adds a separate entry of the source.",
  "data": [
    {"compound": "N=C(N)c1ccc(OCCCCCOc2ccc(C(=N)N)cc2)cc1", "note": "[pentamidine]", "values": [
      {"measurement": "effect on FEN-1 cleavage of regular 5′ flap structures resembling RNA-DNA primers", "setting": "[1]", "value": "little effect"},
      {"measurement": "effect on kcat and Km of FEN-1 cleavage of HIV CDF substrates", "setting": "[1]; Michaelis-Menten, double-reciprocal plots, 37° C., 10 min", "value": "decrease"},
      {"measurement": "cleavage of both HIV CDF and regular 5′ flap substrates", "setting": "[1]; concentrations higher than 1 mM", "value": "completely inhibited"},
      {"measurement": "FEN-1's activity cleaving regular 5′ flap substrates retained", "setting": "[1]; [6]", "value": "greater than 80%"},
      {"measurement": "FEN-1 cleavage of HIV CDF structures suppressed", "setting": "[1]; [6]", "value": 90, "unit": "%"},
      {"measurement": "suppression of HIV replication (p24)", "setting": "[2]; CEM cells", "value": 69.3, "unit": "%"},
      {"measurement": "suppression of HIV replication (p24)", "setting": "[2]; H9 cells", "value": 98.8, "unit": "%"},
      {"measurement": "inhibitory effect on HIV replication compared with AZT", "setting": "[2]; T-cell lines", "value": "equal to or more effective than AZT; also recorded: equivalent to AZT"},
      {"measurement": "inhibitory effect on HIV-1 replication relative to AZT", "setting": "[2]; another T-cell line", "value": "about 70 % that of AZT"}
    ]},
    {"compound": "D181A: dominant negative point mutant of human FEN-1, binds flap DNA but deficient in catalysis and nuclear localization", "values": [
      {"measurement": "inhibition of wild type FEN-1 flap endonuclease activity in vitro", "setting": "[1]; HIV CDF substrate, mutant 8-10 folds higher than wild type protein concentration", "value": "almost completely inhibit"},
      {"measurement": "inhibition of FEN-1 activity with d-flap substrates", "setting": "[1]; d-flap substrates, model for host cell RNA primer removal", "value": "does not inhibit"},
      {"measurement": "HIV-1 cDNA integration into host genome", "setting": "[3]", "value": "significantly decreased"},
      {"measurement": "decrease of HIV-1 integration, hygromycin-resistant CFUs", "setting": "[4]", "value": "more than 95 % CFUs"},
      {"measurement": "HIV-1 replication suppressed, secreted HIV p24 protein concentrations", "setting": "[5]; stable T-cell lines over-expressing the mutant", "value": "more than 99.9%"},
      {"measurement": "HIV inhibition, culture supernatant p24", "setting": "[5]; transduced CEM cells, HIVIIIB and HIVNL4-3, weekly for four weeks", "value": "strong HIV inhibition"}
    ]},
    {"compound": "Cc1cn([C@H]2C[C@H](N=[N+]=[N-])[C@@H](CO)O2)c(=O)[nH]c1=O", "note": "[AZT]", "values": [
      {"measurement": "inhibition of HIV replication (p24)", "setting": "[2]; CEM cells", "value": 98.6, "unit": "%"},
      {"measurement": "inhibition of HIV replication (p24)", "setting": "[2]; H9 cells", "value": 100, "unit": "%"}
    ]}
  ]
}
